From patent publication US20260000632A1, “STRUCTURALLY MODIFIED FATTY ACIDS FOR IMPROVING GLYCEMIC CONTROL AND TREATING INFLAMMATORY BOWEL DISEASE” (Northsea Therapeutics B.V., priority 2018, published 2026)

Assays:
plasma insulin = test: Plasma insulin at 24 h in lean male SPD rats; format: in vivo, rat; conditions: Compound A 74 mg/kg or Compound B 84 mg/kg oral, non-significant
Protocol: To establish the acute effects of oral administration of Compound A and Compound B upon active GLP-1 and insulin concentrations, lean (about 300 g) male Sprague-Dawley (SPD) rats were divided into groups (n=6-8) and fed 74 and 84 mg/kg body weight of Compound A or Compound B respectively, either with or without concurrent administration of a dipeptidyl peptidase 4 (DPP-4) inhibitor 60 minutes prior to an oral glucose tolerance test (OGTT) as outlined below. Parallel groups receiving either corn oil alone (corn oil+vehicle, n=10) or corn oil and a DPP-4 inhibitor (“DPP-4 i”) (corn oil+ (DPP-4 i), n=10) were included as controls. The DPP-4 inhibitor was linagliptin.
A second oral dose of 74 and 84 mg/kg bodyweight of Compound A or Compound B respectively was administered at 240 minutes and ad lib feeding was initiated. A second dose of DPP-4 inhibitor was administered at 480 mins prior to lights out. Blood samples were collected at 24 h for measurement of active GLP-1 and insulin. All values are mean, figures depict mean values (SEM).

[1] = system: IL6, IL1b, S100A8, TNFα, Reg3g, IL17a mRNA; test: Colonic mRNA levels of cytokines and biomarkers by real-time PCR in DSS-induced colitis mice; format: in vivo, mouse; conditions: 126 and 252 mg/kg per day, relative to HPRT
Protocol: The C56BL/6J mouse is a strain susceptible to DSS-induced colitis. To evaluate the efficacy and dosage of Compound B in treatment of DSS-induced colitis, inflammation was induced in 30 9-week old C56BL/6J mice by adding 1.5% DSS to the drinking water for 7 days. The mice were fed a standard chow diet that consisted of 30 weight percent wheat. The mice were divided into three groups of 10, and for each day of DSS administration each group was administered via oral gavage either (1) 100 μL corn oil per day (Control), (2) 126 mg/kg Compound B (dissolved in 100 μL corn oil) per day (“Compound B-Low” or “Compound B-L”), or (3) 252 mg/kg Compound B (dissolved in 100 μL corn oil) per day (“Compound B-High” or “Compound B-H”). Following the 7-day period of DSS induction, mice were sacrificed and their intestinal tissue was used for histopathological and gene expression analysis.
To evaluate the effect of treatment with Compound B on the levels of proinflammatory cytokines and biomarkers, total RNA was extracted from small and large intestinal tissue samples (>100 mg). cDNA was synthesized by reverse transcription and analyzed by real-time PCR. Results were normalized to the level of the housekeeping gene hypoxanthine guanine phosphoribosyltransferase (HPRT). The relative mRNA expression of the tested gene relative to HPRT expression was calculated using the 2^−ΔΔCt method as described in Pickert et al., J. Exp. Med., 2009, 206:1465-1472. Interleukin 6 (IL6), IL1b, calgranulin-A (S100A8), and tumor necrosis factor α (TNFα) have been implicated as mediators of IBD, including both ulcerative colitis and Crohn's disease. IL6, IL1b, and calgranulin-A are prominently expressed in inflammatory macrophages. IL22-dependent regenerating islet-derived 3 gamma (Reg3g) is induced in response to inflammation in epithelial cells. IL17 is secreted by Th17 T helper cells and innate lymphoid cells type 3 (ILC3).

[2] = Intestinal tissue distribution of radioactivity by quantitative whole-body autoradiography (QWBA); format: in vivo; conditions: male albino rat, single oral [14C]-Compound B 50 mg/kg
Protocol: This study was conducted to determine the intestinal tissue distribution of radioactivity in male albino rats following a single oral administration of [14C]-Compound B using quantitative whole-body autoradiography (QWBA). The tissue distribution in rats following a single oral dose of [14C]-Compound B at 50 mg/kg (ca 5 MBq/kg) was studied by QWBA analysis up to 168 hours after dosing.

[3] = 1 hour, *affected by high levels of radioactivity in adjacent contents
[4] = 2 hours, *affected by high levels of radioactivity in adjacent contents
[5] = 4 hours, *affected by high levels of radioactivity in adjacent contents
[6] = 8 hours, *affected by high levels of radioactivity in adjacent contents

For `CC/C=C\C/C=C\C/C=C\C/C=C\C/C=C\CCCCSC(CC)(CC)C(=O)O` [Compound B, 2-ethyl-2-((5Z,8Z,11 Z,14Z,17Z)-icosa-5,8,11,14,17-pentaenylthio)butanoic acid], the “Increase in plasma insulin concentration at 24 h versus corn oil+vehicle and corn oil+DPP4 inhibitor” value (plasma insulin; compound alone) was 25%, the “Increase in plasma insulin concentration at 24 h versus corn oil+vehicle and corn oil+DPP4 inhibitor” value (plasma insulin; in combination with DPP4 inhibitor) was 40% and the “Expression of IL17a” value [1] was “lack of change”. The “mRNA levels of IL1b compared to untreated mice” value [1] was “dose-dependent decrease”, the “mRNA levels of IL6 compared to untreated mice” value [1] was “dose-dependent decrease” and the “mRNA levels of Reg3g compared to untreated mice” value [1] was “dose-dependent decrease”. The “mRNA levels of S100A8 compared to untreated mice” value [1] was “dose-dependent decrease”, the “mRNA levels of TNFα compared to untreated mice” value [1] was “dose-dependent decrease” and the “Time of peak concentrations in the small intestinal mucosa” value [2] was 4 h. For the same compound, the “Radioactivity concentration, Caecum mucosa” value ([2]; 1 hour) was 1.04 μg equivalents of Compound B/g of tissue, the “Radioactivity concentration, Large intestine mucosa” value ([2]; 1 hour) was 0.740 μg equivalents of Compound B/g of tissue and the “Radioactivity concentration, Oesophageal wall” value ([2]; 1 hour) was 5.83 μg equivalents of Compound B/g of tissue. The “Radioactivity concentration, Rectum mucosa” value ([2]; 1 hour) was 0.417 μg equivalents of Compound B/g of tissue, the “Radioactivity concentration, Stomach mucosa (fundus)” value ([2]; 1 hour) was 8.08 μg equivalents of Compound B/g of tissue and the “Radioactivity concentration, Small intestine mucosa” value [2, 3] was 127* μg equivalents of Compound B/g of tissue. For the same compound, the “Radioactivity concentration, Stomach mucosa (non-fundic)” value [2, 3] was 17.3* μg equivalents of Compound B/g of tissue, the “Radioactivity concentration, Caecum mucosa” value ([2]; 2 hours) was 1.73 μg equivalents of Compound B/g of tissue and the “Radioactivity concentration, Large intestine mucosa” value ([2]; 2 hours) was 0.332 μg equivalents of Compound B/g of tissue. For the same compound, the “Radioactivity concentration, Oesophageal wall” value ([2]; 2 hours) was 1.72 μg equivalents of Compound B/g of tissue, the “Radioactivity concentration, Rectum mucosa” value ([2]; 2 hours) was 0.883 μg equivalents of Compound B/g of tissue and the “Radioactivity concentration, Stomach mucosa (fundus)” value ([2]; 2 hours) was 4.31 μg equivalents of Compound B/g of tissue. For the same compound, the “Radioactivity concentration, Small intestine mucosa” value [2, 4] was 56.5* μg equivalents of Compound B/g of tissue, the “Radioactivity concentration, Stomach mucosa (non-fundic)” value [2, 4] was 28.1* μg equivalents of Compound B/g of tissue and the “Radioactivity concentration, Large intestine mucosa” value ([2]; 4 hours) was 0.920 μg equivalents of Compound B/g of tissue. For the same compound, the “Radioactivity concentration, Oesophageal wall” value ([2]; 4 hours) was 1.29 μg equivalents of Compound B/g of tissue, the “Radioactivity concentration, Rectum mucosa” value ([2]; 4 hours) was 1.03 μg equivalents of Compound B/g of tissue and the “Radioactivity concentration, Stomach mucosa (fundus)” value ([2]; 4 hours) was 5.38 μg equivalents of Compound B/g of tissue. For the same compound, the “Radioactivity concentration, Caecum mucosa” value [2, 5] was 93.1* μg equivalents of Compound B/g of tissue, the “Radioactivity concentration, Small intestine mucosa” value [2, 5] was 158* μg equivalents of Compound B/g of tissue and the “Radioactivity concentration, Stomach mucosa (non-fundic)” value [2, 5] was 300* μg equivalents of Compound B/g of tissue. For the same compound, the “Radioactivity concentration, Oesophageal wall” value ([2]; 8 hours) was 5.86 μg equivalents of Compound B/g of tissue, the “Radioactivity concentration, Small intestine mucosa” value ([2]; 8 hours) was 42.7 μg equivalents of Compound B/g of tissue and the “Radioactivity concentration, Stomach mucosa (fundus)” value ([2]; 8 hours) was 7.84 μg equivalents of Compound B/g of tissue. The “Radioactivity concentration, Caecum mucosa” value [2, 6] was 112* μg equivalents of Compound B/g of tissue, the “Radioactivity concentration, Large intestine mucosa” value [2, 6] was 120* μg equivalents of Compound B/g of tissue and the “Radioactivity concentration, Rectum mucosa” value [2, 6] was 3.57* μg equivalents of Compound B/g of tissue. For the same compound, the “Radioactivity concentration, Stomach mucosa (non-fundic)” value [2, 6] was 252* μg equivalents of Compound B/g of tissue, the “Radioactivity concentration, Large intestine mucosa” value ([2]; 1 day) was 2.63 μg equivalents of Compound B/g of tissue and the “Radioactivity concentration, Oesophageal wall” value ([2]; 1 day) was 2.25 μg equivalents of Compound B/g of tissue. The “Radioactivity concentration, Rectum mucosa” value ([2]; 1 day) was 0.870 μg equivalents of Compound B/g of tissue, the “Radioactivity concentration, Small intestine mucosa” value ([2]; 1 day) was 22.6 μg equivalents of Compound B/g of tissue and the “Radioactivity concentration, Stomach mucosa (fundus)” value ([2]; 1 day) was 1.15 μg equivalents of Compound B/g of tissue. The “Radioactivity concentration, Stomach mucosa (non-fundic)” value ([2]; 1 day) was 3.87 μg equivalents of Compound B/g of tissue, the “Radioactivity concentration, Caecum mucosa” value ([2]; 1 day, *affected by high levels of radioactivity in adjacent contents) was 113* μg equivalents of Compound B/g of tissue and the “Radioactivity concentration, Caecum mucosa” value ([2]; 3 days) was 0.319 μg equivalents of Compound B/g of tissue. For the same compound, the “Radioactivity concentration, Large intestine mucosa” value ([2]; 3 days) was 1.06 μg equivalents of Compound B/g of tissue, the “Radioactivity concentration, Oesophageal wall” value ([2]; 3 days) was “BLQ (Tissue concentration below lower limit of quantification)” and the “Radioactivity concentration, Rectum mucosa” value ([2]; 3 days) was “BLQ (Tissue concentration below lower limit of quantification)”. For the same compound, the “Radioactivity concentration, Small intestine mucosa” value ([2]; 3 days) was 0.197 μg equivalents of Compound B/g of tissue, the “Radioactivity concentration, Stomach mucosa (fundus)” value ([2]; 3 days) was “BLQ (Tissue concentration below lower limit of quantification)” and the “Radioactivity concentration, Stomach mucosa (non-fundic)” value ([2]; 3 days) was 0.253 μg equivalents of Compound B/g of tissue. For the same compound, the “Radioactivity concentration, Caecum mucosa” value ([2]; 7 days) was 0.374 μg equivalents of Compound B/g of tissue, the “Radioactivity concentration, Large intestine mucosa” value ([2]; 7 days) was 0.296 μg equivalents of Compound B/g of tissue and the “Radioactivity concentration, Oesophageal wall” value ([2]; 7 days) was “BLQ (Tissue concentration below lower limit of quantification)”. The “Radioactivity concentration, Rectum mucosa” value ([2]; 7 days) was 0.641 μg equivalents of Compound B/g of tissue, the “Radioactivity concentration, Small intestine mucosa” value ([2]; 7 days) was “BLQ (Tissue concentration below lower limit of quantification)” and the “Radioactivity concentration, Stomach mucosa (fundus)” value ([2]; 7 days) was “BLQ (Tissue concentration below lower limit of quantification)”. The “Radioactivity concentration, Stomach mucosa (non-fundic)” value ([2]; 7 days) was “BLQ (Tissue concentration below lower limit of quantification)”.
